Assays:
Assay in all cases: relative viability (nuclei count vs DMSO), 5 days (fraction); higher = more cells survive
XMD13-2 + Palbociclib = compound: C1CC1C(=O)NC2=NNC3=C2C=CC(=C3)C4=CC(=CC=C4)C(=O)NC5CC5 [XMD13-2] + CC(=O)c1c(C)c2cnc(Nc3ccc(N4CCNCC4)cn3)nc2n(C2CCCC2)c1=O [Palbociclib] (partner 0.5 µM)
How it was run: (§1)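 Lung cancer cell lines were seeded in 1536-well plates and dosed by pin tool the next day, with either a single drug or a fixed anchor-drug dose combined with five library-drug doses (not always all listed) spaced in √10 steps. Five days later, one step fixed the cells and stained their nuclei (final 0.05% Triton X-100, 1% formaldehyde, 1 ug/ml Hoechst), and nuclei were counted on 4× images. Relative viability is the nuclei count in treated wells divided by the count in vehicle wells, and each value is the median of duplicate plates.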

XMD13-2 + Bortezomib = compound: C1CC1C(=O)NC2=NNC3=C2C=CC(=C3)C4=CC(=CC=C4)C(=O)NC5CC5 [XMD13-2] + CC(C)C[C@H](NC(=O)[C@H](Cc1ccccc1)NC(=O)c1cnccn1)B(O)O [Bortezomib] (partner 0.002 µM)
How it was run: as §1

XMD13-2 + Crizotinib = compound: C1CC1C(=O)NC2=NNC3=C2C=CC(=C3)C4=CC(=CC=C4)C(=O)NC5CC5 [XMD13-2] + C[C@@H](Oc1cc(-c2cnn(C3CCNCC3)c2)cnc1N)c1c(Cl)ccc(F)c1Cl [Crizotinib] (partner 1 µM)
How it was run: as §1

ALW-II-49-7 + Tozasertib = compound: Cc1ccc(C(=O)Nc2cccc(C(F)(F)F)c2)cc1Nc1cncc(C(N)=O)c1 [ALW-II-49-7] + Cc1cc(Nc2cc(N3CCN(C)CC3)nc(Sc3ccc(NC(=O)C4CC4)cc3)n2)n[nH]1 [Tozasertib] (partner 0.1 µM)
How it was run: as §1

UMC-11 showed a relative viability (XMD13-2 + Palbociclib; first compound 0.05 µM) of 0.356, a relative viability (XMD13-2 + Palbociclib; first compound 0.1581 µM) of 0.313 and a relative viability (XMD13-2 + Palbociclib; first compound 0.5 µM) of 0.349. The relative viability (XMD13-2 + Palbociclib; first compound 1.581 µM) was 0.33, the relative viability (XMD13-2 + Palbociclib; first compound 5 µM) was 0.334 and the relative viability (XMD13-2 + Bortezomib; first compound 0.05 µM) was 0.737. The relative viability (XMD13-2 + Bortezomib; first compound 0.1581 µM) was 0.896, the relative viability (XMD13-2 + Bortezomib; first compound 0.5 µM) was 0.825 and the relative viability (XMD13-2 + Bortezomib; first compound 1.581 µM) was 0.587. It also gave a relative viability (XMD13-2 + Bortezomib; first compound 5 µM) of 0.981, a relative viability (XMD13-2 + Crizotinib; first compound 0.05 µM) of 0.58 and a relative viability (XMD13-2 + Crizotinib; first compound 0.1581 µM) of 0.557. For the same cell line, the relative viability (XMD13-2 + Crizotinib; first compound 0.5 µM) was 0.647, the relative viability (XMD13-2 + Crizotinib; first compound 1.581 µM) was 0.467 and the relative viability (XMD13-2 + Crizotinib; first compound 5 µM) was 0.329. For the same cell line, the relative viability (ALW-II-49-7 + Tozasertib; first compound 0.08 µM) was 0.193, the relative viability (ALW-II-49-7 + Tozasertib; first compound 0.253 µM) was 0.202 and the relative viability (ALW-II-49-7 + Tozasertib; first compound 0.8 µM) was 0.21. It also gave a relative viability (ALW-II-49-7 + Tozasertib; first compound 2.53 µM) of 0.186 and a relative viability (ALW-II-49-7 + Tozasertib; first compound 8 µM) of 0.217.

From the supplement of paper PMC10307832
